Measurements published in publication PMC5867622, “Microginins from a Microcystis sp. Bloom Material Collected from the Kishon Reservoir, Israel” (Marine Drugs, 2018).
Like-named read-outs stand apart in the source and are kept apart here. Square brackets hold non-standard residues; d marks the D form. Peptide text beside a SMILES is read from it. * marks the point of attachment. X13 = CN[C@H](CCCCCCC(Cl)Cl)[C@@H](O)C(=O)*; X15 = N[C@@H](CCCCCCC(Cl)Cl)[C@H](O)C(=O)*; X1 = N[C@H](CCCCCCC(Cl)Cl)[C@@H](O)C(=O)*; X4 = CN[C@H](CCCCCCCCl)[C@@H](O)C(=O)*; X7 = N[C@H](CCCCCCCCl)[C@@H](O)C(=O)*; NMeY = CN[C@@H](Cc1ccc(O)cc1)C(=O)O; X3 = CCCCCCC[C@H](NC)[C@H](O)C(=O)*; dNMeY = CN[C@H](Cc1ccc(O)cc1)C(=O)O; X9 = CCCCCCC[C@H](N)[C@H](O)C(=O)*; X17 = CCCCC[C@H](N)[C@H](O)C(=O)*; NMeI = CC[CH](C)[CH](NC)C(=O)O; NMeL = CN[CH](CC(C)C)C(=O)O; X11 = CCCCCCCC(NC)C(O)C(=O)*; X5 = NC(CCCCCCCCl)C(O)C(=O)*; NMeV = CN[C@H](C(=O)O)C(C)C; X16 = CCCCCC(NC)C(O)C(=O)*; X8 = CCCCCCCC(N)C(O)C(=O)*

Assays:
ACE = details: Table S1, cited from earlier work
APM = details: cited from earlier work; for IC50: Table S1
APN = details: Table S1, cited from earlier work
[1] = biological target: T1, porcine kidney microsomal aminopeptidase M (Sus scrofa, UniProt P15145); test: Aminopeptidase M inhibitory assay; format: biochemical
T1 construct: purchased Sigma-Aldrich (St. Louis, MO, USA); host or cells: porcine kidney microsomes
T1 sequence (P15145 1-963): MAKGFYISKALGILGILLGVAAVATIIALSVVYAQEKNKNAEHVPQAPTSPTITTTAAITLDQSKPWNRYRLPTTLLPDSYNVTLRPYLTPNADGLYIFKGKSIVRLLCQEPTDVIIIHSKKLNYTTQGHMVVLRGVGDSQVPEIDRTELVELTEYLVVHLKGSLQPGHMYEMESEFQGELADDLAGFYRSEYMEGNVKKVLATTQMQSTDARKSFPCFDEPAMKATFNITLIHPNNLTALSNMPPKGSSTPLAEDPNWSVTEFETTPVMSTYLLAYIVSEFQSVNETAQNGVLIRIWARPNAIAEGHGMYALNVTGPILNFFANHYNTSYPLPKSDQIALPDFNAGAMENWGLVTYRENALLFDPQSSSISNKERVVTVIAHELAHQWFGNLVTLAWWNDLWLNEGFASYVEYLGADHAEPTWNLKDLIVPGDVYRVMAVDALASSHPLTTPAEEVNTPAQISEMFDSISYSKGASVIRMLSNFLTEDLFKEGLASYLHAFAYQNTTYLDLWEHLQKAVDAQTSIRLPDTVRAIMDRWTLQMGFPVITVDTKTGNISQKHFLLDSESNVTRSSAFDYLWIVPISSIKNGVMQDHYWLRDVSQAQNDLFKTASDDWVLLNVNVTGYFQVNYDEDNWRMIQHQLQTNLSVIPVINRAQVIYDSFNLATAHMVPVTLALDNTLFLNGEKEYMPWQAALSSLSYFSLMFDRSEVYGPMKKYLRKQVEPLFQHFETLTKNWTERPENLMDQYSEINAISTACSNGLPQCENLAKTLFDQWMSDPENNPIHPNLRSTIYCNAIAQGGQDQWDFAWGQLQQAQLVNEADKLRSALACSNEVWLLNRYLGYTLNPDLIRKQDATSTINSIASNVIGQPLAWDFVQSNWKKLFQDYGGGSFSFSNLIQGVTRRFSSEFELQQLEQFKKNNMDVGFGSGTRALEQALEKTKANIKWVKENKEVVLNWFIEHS
Procedure: Aminopeptidase M inhibitory activity was determined according to the procedure described by Ishida et al.. A reaction mixture composed of 20 μL of L-leucine-p-nitroanilide (2 mM in 0.1 M Tris-HCl buffer at pH 7.0), 50 μL of 0.1 M Tris-HCl buffer (pH 7.0) and 20 μL of test solution was added to each well of a 96-well microtiter plate. The plate was incubated at 37 °C for 5 min; thereafter, 10 μL of porcine kidney microsomal aminopeptidase M [EC Number 232-942-5, Sigma-Aldrich (St. Louis, MO, USA), […] in 3.5 M (NH4)2SO4] was added to each well, and the absorbance at 405 nm was measured for 30 min. The microginin samples were dissolved in DMSO at a concentration of 1 mg/mL, and the IC50 values were determined by analysis of a series of dilutions (from 45.5 μM to 0.00069 μM). A sigmoidal curve of the enzyme inhibition versus the concentration of the inhibitor was observed that was fit to a 4-parameter logistic model.

mAPM = test system: mAPM; design: method as in earlier work; details: Table S1; ref 3 (Neumann et al., FEMS Microbiol. Lett. 1997); cited from earlier work
cAPM = test system: cAPM; design: method as in earlier work; details: Table S1; ref 3 (Neumann et al., FEMS Microbiol. Lett. 1997); cited from earlier work
[2] = ref 4 (Ishida et al., Tetrahedron 1998)
[3] = ref 4 (Ishida et al., Tetrahedron 1998), read-out: Activity: APM
[4] = ref 6 (Ishida et al., Tetrahedron 2000)
[5] = Activity: APM, Table S1, source 14 = this manuscript
[6] = IC50 in μM ± SD, Table 4, substrate L-leucine-p-nitroanilide, Tris-HCl pH 7.0, 37 °C
[7] = read-out: Activity: APM, Table S1, source 14 = this manuscript
[8] = read-out: IC50 in μM ± SD, Table 4, substrate L-leucine-p-nitroanilide, Tris-HCl pH 7.0, 37 °C
[9] = Table 4, substrate L-leucine-p-nitroanilide, Tris-HCl pH 7.0, 37 °C, read-out: IC50 in μM ± SD
[10] = Table S1, source 14 = this manuscript, heading: Activity: APM, read-out: Activity: APM
[11] = ref 5 (Kodani et al., FEMS Microbiol. Lett. 1999)
[12] = ref 5 (Kodani et al., FEMS Microbiol. Lett. 1999), read-out: Activity: AMP

## CC(C)[C@H](NC(=O)[C@@H](O)[C@@H](N)CCCCCCC(Cl)Cl)C(=O)N(C)[C@H](C(=O)N(C)[C@@H](Cc1ccc(O)cc1)C(=O)N1CCC[C@H]1C(=O)N[C@@H](Cc1ccc(O)cc1)C(=O)O)C(C)C [Microginin 299-B] (X15-V[NMeV][NMeY]PY-OH)
ACE; ref 2 (Ishida et al., Tetrahedron 1997)
  Activity: ACE (ni): ni
APM; ref 2 (Ishida et al., Tetrahedron 1997), read-out: Activity: APM
  IC50: 7.1 µM

## CCCCCCC[C@H](N)[C@H](O)C(=O)N[C@H](C(=O)N(C)[C@H](C(=O)N(C)[C@@H](Cc1ccc(O)cc1)C(=O)N1CCC[C@H]1C(=O)N[C@@H](Cc1ccc(O)cc1)C(=O)O)C(C)C)C(C)C [Microginin 299-C] (X9-V[NMeV][NMeY]PY-OH)
ACE; [2]
  Activity: ACE (ni): ni
APM; [3]
  IC50: 2.3 µM

## CC(C)[C@H](NC(=O)[C@H](O)[C@H](N)CCCCCCC(Cl)Cl)C(=O)N(C)[C@H](C(=O)N(C)[C@H](Cc1ccc(O)cc1)C(=O)N1CCC[C@@H]1C(=O)O)C(C)C [Microginin 299-D] (X1-V[NMeV][dNMeY][dP]-OH)
ACE; [2]
  Activity: ACE (ni): ni
APM; [3]
  IC50: 8.5 µM

## CCCCCCC[C@H](NC)[C@H](O)C(=O)N[C@H](C(=O)N(C)[C@H](C(=O)N(C)[C@@H](Cc1ccc(O)cc1)C(=O)N[C@@H](Cc1ccc(O)cc1)C(=O)O)C(C)C)C(C)C [Microginin 478] (X3-V[NMeV][NMeY]Y-OH)
ACE; [4]
  IC50: 13.2 µM
APM; ref 6 (Ishida et al., Tetrahedron 2000), read-out: Activity: APM
  IC50: 132 µM

## CC(C)[C@@H](C(=O)N[C@@H](Cc1ccc(O)cc1)C(=O)O)N(C)C(=O)[C@H](C)NC(=O)[C@@H](O)[C@@H](N)CCCCCCCCl [Microginin AL584]
APN; ref 10 (Gesner-Apter, Carmeli, Tetrahedron 2008)
  Activity: APN (ni): ni

## CCCCCCCC(N)C(O)C(=O)NC(C(=O)N1CCCC1C(=O)NC(Cc1ccc(O)cc1)C(=O)NC(Cc1ccc(O)cc1)C(=O)O)C(C)O (stereo not drawn) [Microginin FR3] (X8-TPYY-OH; configuration not given here)
[1]; [5]
  IC50: 0.0062 µM
[1]; [6]
  IC50: 6.2 ± 0.03 µM

## CCCCCCCC(NC)C(O)C(=O)NC(C(=O)N1CCCC1C(=O)NC(Cc1ccc(O)cc1)C(=O)NC(Cc1ccc(O)cc1)C(=O)O)C(C)O (stereo not drawn) [Microginin FR4] (X11-TPYY-OH; configuration not given here)
[1]; [7]
  IC50: 0.0018 µM
[1]; [8]
  IC50: 1.8 ± 0.04 µM

## CCC(C)C(C(=O)N1CCCC1C(=O)NC(Cc1ccc(O)cc1)C(=O)O)N(C)C(=O)C(Cc1ccc(O)cc1)NC(=O)C(O)C(N)CCCCCCCCl (stereo not drawn) [Microginin HG787] (X5-Y[NMeI]PY-OH; configuration not given here)
APN; ref 11 (Lifshits et al., Tetrahedron 2011)
  IC50: 7.7 µM

## CCCCCCC[C@@H](NC)[C@@H](O)C(=O)N[C@@H](Cc1ccc(O)cc1)C(=O)N(C)[C@@H](CC(C)C)C(=O)N1CCC[C@H]1C(=O)O [Microginin KR604]
[1]; [9]
  IC50: 7.5 ± 0.1 µM
[1]; [10]
  IC50: 7.5 µM

## CN[C@H](CCCCCCCCl)[C@@H](O)C(=O)N[C@@H](Cc1ccc(O)cc1)C(=O)N(C)[C@@H](CC(C)C)C(=O)N1CCC[C@H]1C(=O)O [Microginin KR638]
[1]; [9]
  IC50: 3.8 ± 0.3 µM
[1]; [10]
  IC50: 3.8 µM

## CCCCCCCC(NC)C(O)C(=O)NC(Cc1ccc(O)cc1)C(=O)N(C)C(CC(C)C)C(=O)N1CCCC1C(=O)NC(Cc1ccc(O)cc1)C(=O)O (stereo not drawn) [Microginin KR767] (X11-Y[NMeL]PY-OH; configuration not given here)
[1]; [7]
  IC50: 0.0005 µM
[1]; [8]
  IC50: 0.5 ± 0.2 µM

## CC(C)C[C@@H](C(=O)N1CCC[C@H]1C(=O)N[C@@H](Cc1ccc(O)cc1)C(=O)O)N(C)C(=O)[C@H](Cc1ccc(O)cc1)NC(=O)[C@H](O)[C@H](N)CCCCCCCCl [Microginin KR787] (X7-Y[NMeL]PY-OH)
[1]; [7]
  IC50: 0.0057 µM
[1]; [8]
  IC50: 5.7 ± 0.1 µM

## CN[C@H](CCCCCCCCl)[C@@H](O)C(=O)N[C@@H](Cc1ccc(O)cc1)C(=O)N(C)[C@@H](CC(C)C)C(=O)N1CCC[C@H]1C(=O)N[C@@H](Cc1ccc(O)cc1)C(=O)O [Microginin KR801] (X4-Y[NMeL]PY-OH)
[1]; [7]
  IC50: 0.0001 µM
[1]; [8]
  IC50: 0.1 ± 0.2 µM

## CN[C@H](CCCCCCCCl)[C@@H](O)C(=O)N[C@@H](Cc1ccc(O)cc1)C(=O)N(C)[C@@H](CC(C)C)C(=O)N1CCC[C@H]1C(=O)N[C@@H](Cc1ccc(O)cc1)C(=O)OC [Microginin KR815] (X4-Y[NMeL]PY-OMe)
[1]; [5]
  IC50: 0.072 µM
[1]; [6]
  IC50: 72 ± 0.1 µM

## CN[C@H](CCCCCCC(Cl)Cl)[C@@H](O)C(=O)N[C@@H](Cc1ccc(O)cc1)C(=O)N(C)[C@@H](CC(C)C)C(=O)N1CCC[C@H]1C(=O)N[C@@H](Cc1ccc(O)cc1)C(=O)O [Microginin KR835] (X13-Y[NMeL]PY-OH)
[1]; [7]
  IC50: 0.0004 µM
[1]; [8]
  IC50: 0.4 ± 0.2 µM

## CCCCCC(NC)C(O)C(=O)N[C@H](C(=O)N(C)[C@H](C(=O)N(C)[C@@H](Cc1ccc(O)cc1)C(=O)N[C@@H](Cc1ccc(O)cc1)C(=O)O)[C@@H](C)CC)C(C)C (stereo partly drawn) [Microginin SD755] (X16-V[NMeI][NMeY]Y-OH)
APN; ref 7 (Resef, Carmeli, Tetrahedron 2001)
  IC50: 18.5 µM

## C[C@H](NC(=O)C(O)C(N)CCCCCCCCl)C(=O)N1CCC[C@H]1C(=O)N[C@@H](Cc1ccc(O)cc1)C(=O)N[C@@H](Cc1ccc(O)cc1)C(=O)O (stereo partly drawn) [Microginin T1] (X5-APYY-OH)
ACE; [11]
  IC50: 6.8 µM
APM; [12]
  IC50: 2.7 µM

## CCCCCCCC(N)C(O)C(=O)N[C@@H](C)C(=O)N1CCC[C@H]1C(=O)N[C@@H](Cc1ccc(O)cc1)C(=O)N[C@@H](Cc1ccc(O)cc1)C(=O)O (stereo partly drawn) [Microginin T2] (X8-APYY-OH)
ACE; [11]
  IC50: 10 µM
APM; [12]
  IC50: 2.9 µM

## CCCCC[C@H](N)[C@H](O)C(=O)N[C@H](C(=O)N(C)[C@H](C(=O)N(C)[C@@H](Cc1ccc(O)cc1)C(=O)N[C@@H](Cc1ccc(O)cc1)C(=O)O)[C@@H](C)CC)C(C)C [Nostoginin BN741] (X17-V[NMeI][NMeY]Y-OH)
APN; ref 8 (Ploutno, Carmeli, Tetrahedron 2002)
  IC50: 1.3 µM

## Microginin 91-A
ACE; [4]
  Activity: ACE (ni): ni
APM; Table S1, 'APM, ACE-ni', ref 6 (Ishida et al., Tetrahedron 2000)
  Activity: APM (ni): ni

## Microginin FR1
mAPM
  IC50: 0.006 µM
ACE; ref 3 (Neumann et al., FEMS Microbiol. Lett. 1997)
  IC50: 16 µM
cAPM
  IC50: 1.3 µM
